# Test results as given in US10111874B2, “Combination therapies for treatment of cancer” (Araxes Pharma LLC, priority 2014, dated 2018).
# Target: T1, KRAS G12C 1-169, his-tagged protein, GDP-loaded (Homo sapiens, UniProt P01116, G12C)
# T1 construct: KRAS G12C 1-169, his-tagged protein, GDP-loaded
# Assay: Biochemical assay: covalent binding to KRAS G12C analyzed by mass spectrometry; further: test concentration or dose not given here
# Details: compounds 1-47, measured at 24 h
# T1 sequence (P01116 1-169 isoform P01116-2 G12C): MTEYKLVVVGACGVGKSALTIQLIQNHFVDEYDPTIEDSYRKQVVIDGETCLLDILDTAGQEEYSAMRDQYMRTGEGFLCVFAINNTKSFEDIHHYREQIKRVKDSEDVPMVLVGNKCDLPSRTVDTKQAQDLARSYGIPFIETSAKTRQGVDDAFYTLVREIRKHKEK
row,SMILES,Binding %
1,"C=CC(=O)N1CCN(c2ncnc3cc(F)c(-c4ccccc4Cl)cc23)CC1 [Compound I-33, 1-(4-(6-(2-chlorophenyl)-7-fluoroquinazolin-4-yl)piperazin-1-yl)prop-2-en-1-one]",++ (++indicates binding activity greater than 25% and up to 50%)
2,"C=CC(=O)NC1CN(c2ncnc3cc(Cl)c(-c4ccccc4Cl)cc23)C1 [Compound I-29, N-(1-(7-chloro-6-(2-chlorophenyl)quinazolin-4-yl)azetidin-3-yl)acrylamide]",+ (+indicates binding activity from 5% to 25%)
3,"C=CC(=O)N1CCN(c2c(C#N)cnc3cc(Cl)c(-c4ccc(Cl)cc4)cc23)CC1 [Compound I-42, 4-(4-acryloylpiperazin-1-yl)-7-chloro-6-(4-chlorophenyl)quinoline-3-carbonitrile]",+++ (+++indicates binding activity greater than 50% and up to 75%)

# Same assay, conditions: compounds 48-246, measured at 2 h
row,SMILES,Binding %
1,"C=CC(=O)N1CCN(c2ncnc3cc(-c4cccc5ccccc45)c(Cl)cc23)CC1 [Compound I-123, 1-(4-(6-chloro-7-(naphthalen-1-yl)quinazolin-4-yl)piperazin-1-yl)prop-2-en-1-one]",++++ (++++indicates binding activity greater than 75%)
2,"C=CC(=O)N1CCN(c2ncnc3cc(-c4cc(O)c(F)cc4F)c(Cl)cc23)CC1 [Compound I-206, 1-(4-(6-chloro-7-(2,4-difluoro-5-hydroxyphenyl)quinazolin-4-yl)piperazin-1-yl)prop-2-en-1-one]",++++ (++++indicates binding activity greater than 75%)
3,"C=CC(=O)Nc1ncc(C)c(-c2cc3ncnc(N4CCN(C(=O)C=C)CC4)c3cc2Cl)n1 [Compound I-178, N-(4-(4-(4-acryloylpiperazin-1-yl)-6-chloroquinazolin-7-yl)-5-methylpyrimidin-2-yl)acrylamide]",+ (+indicates binding activity from 5% to 25%)
4,"C=CC(=O)N1CCN(c2ncnc3cc(-c4c(C)ccc5[nH]ncc45)c(C(F)(F)F)cc23)CC1 [Compound I-237, 1-(4-(7-(5-methyl-1H-indazol-4-yl)-6-(trifluoromethyl)quinazolin-4-yl)piperazin-1-yl)prop-2-en-1-one]",++++ (++++indicates binding activity greater than 75%)
5,"C=CC(=O)N1CCN(c2ncnc3cc(-n4cc(Cl)ccc4=O)c(Cl)cc23)CC1 [Compound I-177, 1-(4-(4-acryloylpiperazin-1-yl)-6-chloroquinazolin-7-yl)-5-chloropyridin-2(1H)-one]",+ (+indicates binding activity from 5% to 25%)
6,"C=CC(=O)N1CCN(c2ncnc3cc(-c4ccccc4-c4cn[nH]c4)c(Cl)cc23)CC1 [Compound I-183, 1-(4-(7-(2-(1H-pyrazol-4-yl)phenyl)-6-chloroquinazolin-4-yl)piperazin-1-yl)prop-2-en-1-one]",+++ (+++indicates binding activity greater than 50% and up to 75%)
7,"C=CC(=O)N1CCN(c2ncnc3cc(Cl)ccc23)CC1C#N (centres unmarked) [Compound I-48, 1-acryloyl-4-(7-chloroquinazolin-4-yl)piperazine-2-carbonitrile]",++++ (++++indicates binding activity greater than 75%)
8,"C=CC(=O)N1CCN(c2ncnc3cc(-c4c(F)cccc4F)c(Cl)cc23)CC1 [Compound I-132, 1-(4-(6-chloro-7-(2,6-difluorophenyl)quinazolin-4-yl)piperazin-1-yl)prop-2-en-1-one]",+++ (+++indicates binding activity greater than 50% and up to 75%)
9,"C=CC(=O)N1CCN(c2cnnc3cc(-c4ccccc4C(F)(F)F)c(Cl)cc23)CC1 [Compound I-225, 1-(4-(6-chloro-7-(2-(trifluoromethyl)phenyl)cinnolin-4-yl)piperazin-1-yl)prop-2-en-1-one]",++ (++indicates binding activity greater than 25% and up to 50%)
10,"C=CC(=O)N1CCN(c2ncnc3cc(-c4cc(O)ccc4Cl)c(Cl)cc23)CC1 [Compound I-128, 1-(4-(6-chloro-7-(2-chloro-5-hydroxyphenyl)quinazolin-4-yl)piperazin-1-yl)prop-2-en-1-one]",+++ (+++indicates binding activity greater than 50% and up to 75%)
11,"C=CC(=O)N1CCN(c2ncnc3cc(-c4ccccc4C(F)(F)F)c(Cl)cc23)CC1C (centres unmarked) [Compound I-124, 1-(4-(6-chloro-7-(2-(trifluoromethyl)phenyl)quinazolin-4-yl)-2-methylpiperazin-1-yl)prop-2-en-1-one]",+++ (+++indicates binding activity greater than 50% and up to 75%)
12,"C=CC(=O)N1CCN(c2ncnc3cc(-c4cccc5ncoc45)c(Cl)cc23)CC1 [Compound I-129, 1-(4-(7-(benzo[d]oxazol-7-yl)-6-chloroquinazolin-4-yl)piperazin-1-yl)prop-2-en-1-one]",+ (+indicates binding activity from 5% to 25%)

# Same assay, conditions: compounds 247-342, measured at 30 min
row,SMILES,Binding %
1,"C=CC(=O)N1CCN(c2c(C#N)cnc3c(F)c(-c4c(C)ccc5[nH]ncc45)c(Cl)cc23)CC1C (centres unmarked) [Compound 336, 4-(4-acryloyl-3-methylpiperazin-1-yl)-6-chloro-8-fluoro-7-(5-methyl-1H-indazol-4-yl)quinoline-3-carbonitrile]",+++ (+++indicates binding activity greater than 50% and up to 75%)
2,"C=CC(=O)N1CCN(c2ncnc3cc(-c4cc(Cl)cc5cn[nH]c45)c(Cl)cc23)CC1 [Compound I-264, 1-(4-(6-chloro-7-(5-chloro-1H-indazol-7-yl)quinazolin-4-yl)piperazin-1-yl)prop-2-en-1-one]",++ (++indicates binding activity greater than 25% and up to 50%)
3,"C=CC(=O)N1CCN(c2cnnc3cc(-c4c(O)cccc4F)c(C(F)(F)F)cc23)CC1 [Compound I-279, 1-(4-(7-(2-fluoro-6-hydroxyphenyl)-6-(trifluoromethyl)cinnolin-4-yl)piperazin-1-yl)prop-2-en-1-one]",+++ (+++indicates binding activity greater than 50% and up to 75%)
4,"C=CC(=O)N1CCN(c2ncnc3c(F)c(-c4c(C)ccc5[nH]nc(F)c45)c(Cl)cc23)CC1 [Compound 340, 1-(4-(6-chloro-8-fluoro-7-(3-fluoro-5-methyl-1H-indazol-4-yl)quinazolin-4-yl)piperazin-1-yl)prop-2-en-1-one]",++++ (++++indicates binding activity greater than 75%)

# Same assay, conditions: determined at 2 hrs
row,SMILES,Binding %
1,"C=CC(=O)N1CC(N2CCN(C(=O)Cn3ccc4c(Cl)c(Cl)cc(OC)c43)CC2)C1 [II-75, 1-(3-(4-(2-(4,5-dichloro-7-methoxy-1H-indol-1-yl)acetyl)piperazin-1-yl)azetidin-1-yl)prop-2-en-1-one]",+ (+indicates binding activity from 5% to 20%)
2,"C=CC(=O)N1CCN(C(=O)c2cc(-c3ccc(Cl)cc3)c(Cl)cc2O)CC1C#N (centres unmarked) [III-37, 1-acryloyl-4-(4′,6-dichloro-4-hydroxybiphenylcarbonyl)piperazine-2-carbonitrile]",++ (++indicates binding activity greater than 20%)

# Same assay, conditions: determined at 24 hrs
row,SMILES,Binding %
1,"C=CC(=O)N1CC(N2CCN(C(=O)CNc3cc(Cl)ccc3O)CC2)C1 [II-19, 1-(3-(4-(2-(5-chloro-2-hydroxyphenyl-amino)acetyl)-piperazin-1-yl)azetidin-1-yl)prop-2-en-1-one]",+++ (+++indicates binding activity greater than 25% and up to 50%)
2,"C=CC(=O)N1CCC(N2CCN(C(=O)CNc3cc(CC)c(Cl)cc3O)CC2)C1 (centres unmarked) [II-12, 1-(3-(4-(2-(4-chloro-5-ethyl-2-hydroxyphenylamino)-acetyl)piperazin-1-yl)pyrrolidin-1-yl)prop-2-en-1-one]",+++ (+++indicates binding activity greater than 25% and up to 50%)
